Test results from US9657351B2, “MRNA-based gene expression for personalizing patient cancer therapy with an MDM2 antagonist” (Hoffmann-La Roche Inc., priority 2013, dated 2017).
Read-outs that look alike come from different tables or passages of the source.

Experiments:
clinical = settings: both, human, in vivo, AUC0-24, median
[1] = test system: Ki-67-positive tumor cells; assay: NP21280 solid tumor trial, tumor biopsy biomarker (Ki67); type: in vivo, human; settings: p=2.62×10−2
Description: The predictive mRNA signature is also evaluated in two solid tumor trials (FIG. 1). In trial NP21280 30 patients with pretreatment and C1D5 tumor biopsy samples are evaluated; and in NP22890 20 patients with pretreatment and C1D8 tumor biopsy samples are evaluated (Table 6). In both clinical trials, a biomarker package that enabled assessment of p53 pathway activation is assessed (p53 IHC, p21 IHC, MDM2 mRNA, and Ki67), MDM2 inhibition activates the P53 pathway and decreases cell proliferation.

MDM2 mRNA = assay: NO21279 blood cell gene expression on treatment, Affymetrix U133 Plus 2.0 microarray; type: in vivo, human; settings: blood cell specimens, C1D10; IQR 1.71-5.00
Description: (§1) MDM2 mRNA concentrations were assessed at Roche Molecular Systems by quantitative real-time PCR with 50 ng total RNA from MACs isolated leukemia cells from blood. TaqMan (Invitrogen, Carlsbad, Calif., USA) probes were designed to detect MDM2 mRNA and the reference mRNA, beta-glucuronidase, simultaneously using two different fluorescent reporters. Gene expression profiles were generated using Affymetrix U133 Plus 2.0 microarrays. Probset ID's for the each of the four genes on said U133 Plus 2.0 microarray are: 209375_s_at (for XPC); 205386_s_at and 211832_s_at (MDM2); 211692_s_at (BBC3); 207039_at and 211156_at (CDKN2A). The “mRNA expression level” for one of the 4 genes according to the present invention is the accumulation of all counts falling into the range of exons of a gene (e.g. MDM2). […] The predictive patient signature score according to the present invention is then calculated using the following equation: patient signature score=GMDM2+GXPC+GBBC3−GCDKN2A. G in the formula stands for log 2 transformed mRNA expression levels as obtained from patient samples, for example blood leukemia or bone marrow biopsy samples. For example, for the patient data reported in Table 9 (Example 5), G is log 2 of the mRNA probeset expression of the relevant gene as measured with Affymetrix U133 Plus 2.0 microarrays.
(§2) Each intensity value is then log 2 transformed.

BBC3 mRNA = assay: as above; type: in vivo, human; settings: blood cell specimens, C1D10; IQR 1.13-1.99
Description: as §1, §2

CDKN2A mRNA = assay: as above; type: in vivo, human; settings: C1D10; IQR 0.09-0.38
Description: as §1, §2

Hs 38•T = assay: COMPOUND A In Vitro Assay; type: cell-based; settings: Homo sapiens
Source text: (§3) To generate an MDM2 antagonist therapy predictive signature, the response of MDM2 antagonist therapy in vitro with gene expression profiling (FIG. 1) is combined. A bank of 287 human cancer cell lines, collectively termed the Cell Lines for Oncology/Chugai ACcumulative Tumour EncycLopedia (CELLO/CACTEL), representing a broad array of diverse human cancer tumor types are subject to evaluation using several high-throughput genomic technology platforms. The mutational status of nucleic acids from each cell line is determined by exome sequencing. Messenger RNA (mRNA) expression levels at baseline, prior to MDM2 antagonist therapy, are obtained via RNA sequencing. MDM2 antagonist therapy COMPOUND A, sometimes referred to herein as RG7112, responses are obtained by assays known to those skilled in the art such as RNA sequencing and microarray measurement using Gene Chip Human Genome U133 Plus 2.0 Array. The MDM2 therapy responses are obtained by high throughout screening assays. Depending on their responses to COMPOUND A these cell lines are classified as either sensitive, defined as IC50<=1, or resistant, defined as IC50>=10.
(§4) 281 cells are treated with MDM2 antagonists and the IC50 (therapy response) is generated. The cell lines span a broad range of tumor cell types of derivation.

ACHN = assay: COMPOUND A In Vitro Assay; type: cell-based; settings: Homo sapiens
Source text: as §3, §4

HCT-15 = assay: COMPOUND A In Vitro Assay; type: cell-based; settings: Homo sapiens, Intestine, large, colon, TP53 Mutant
Source text: as §3, §4

U-87 MG = assay: COMPOUND A In Vitro Assay; type: cell-based; settings: Homo sapiens
Source text: as §3, §4

PC-10 = assay: COMPOUND A In Vitro Assay; type: cell-based; settings: Homo sapiens, PC10, Lung, TP53 Mutant
Source text: as §3, §4

ZR-75-1 = assay: COMPOUND A In Vitro Assay; type: cell-based; settings: Homo sapiens
Source text: as §3, §4

MKN-28 = assay: COMPOUND A In Vitro Assay; type: cell-based; settings: Homo sapiens, Stomach, TP53 Mutant
Source text: as §3, §4

EGI-1 = assay: COMPOUND A In Vitro Assay; type: cell-based; settings: Homo sapiens, Bile duct, TP53 Mutant
Source text: as §3, §4

MFE-280 = assay: COMPOUND A In Vitro Assay; type: cell-based; settings: Homo sapiens, Uterus, endometrium, TP53 Mutant
Source text: as §3, §4

[2] = test system: Ki-67-positive tumor cells; settings: NP22890; as previously reported; cited from earlier work
P53 = assay: NP21280 solid tumor trial, tumor biopsy biomarker (p53 IHC); type: in vivo, human; settings: at C1D10, p=2.88×10−3
Description: The predictive mRNA signature is also evaluated in two solid tumor trials (FIG. 1). […] In both clinical trials, a biomarker package that enabled assessment of p53 pathway activation is assessed (p53 IHC, p21 IHC, MDM2 mRNA, and Ki67), MDM2 inhibition activates the P53 pathway and decreases cell proliferation.

[3] = test system: 4-gene mRNA signature score (MDM2, XPC, BBC3, CDKN2A); assay: NO21279 4-gene mRNA signature score on treatment; type: in vivo, human
Description: as §1
Risk scores are calculated for patients based on their mRNA expression values of the 4 genes at baseline prior to treatment. To ensure a rigorous and an unbiased validation, the compute of the coefficients in the test cohort is not done. However, due to the platform difference and the biological differences between patients and cell lines, in-vitro coefficients for the patient level classifier is not applied.

CCOc1cc(C(C)(C)C)ccc1C1=N[C@@](C)(c2ccc(Cl)cc2)[C@@](C)(c2ccc(Cl)cc2)N1C(=O)N1CCN(CCCS(C)(=O)=O)CC1 [COMPOUND A]
AUC(0-t) (clinical): 190 µg·h/mL
Ki-67-positive tumor cells change from baseline [1]: decreased
median MDM2 mRNA expression over baseline (MDM2 mRNA): 2.37 times
median BBC3 mRNA expression over baseline (BBC3 mRNA): 1.45 times
median CDKN2A mRNA expression decreased over baseline (CDKN2A mRNA): 0.26 times
IC50 (Hs 38•T; Hs 38•T cells): 700 nM
IC50 (Hs 38•T; Hs 38•T, Ovary, TP53 Wild type): 730 nM
IC50 (ACHN; ACHN cells): 300 nM
IC50 (ACHN; Kidney, TP53 Wild type): 290 nM
IC50 (HCT-15): 7600 nM
IC50 (U-87 MG; Brain, TP53 Wild type): 180 nM
IC50 (U-87 MG; U-87 MG cells): 200 nM
IC50 (PC-10): 14000 nM
IC50 (ZR-75-1; ZR-75-1, ZR-75-1, Breast, mammary gland, TP53 Wild type): 76 nM
IC50 (ZR-75-1; ZR-75-1, ZR-75-1 cells): 100 nM
IC50 (MKN-28): 8100 nM
IC50 (EGI-1): 9000 nM
IC50 (MFE-280): 23000 nM
Ki-67-positive tumor cells change from baseline [2]: decreased
P53 concentration change from baseline (P53): significantly increase
median signature score over baseline ([3]; C1D2, CR patients, IQR 1.13-1.15): 1.15 times
median signature score over baseline ([3]; C1D2, HI patients, IQR 1.04-1.10): 1.08 times
median signature score over baseline ([3]; C1D2, MLFS patients, IQR 1.14-1.19): 1.17 times
median signature score over baseline ([3]; C1D2, PD patients, IQR 1.05-1.16): 1.11 times
median signature score over baseline ([3]; C1D10, CR patients, IQR 1.22-1.24): 1.23 times
median signature score over baseline ([3]; C1D10, HI patients, IQR 1.23-1.30): 1.25 times
overall signature score over baseline ([3]; C1D10, IQR 1.88-4.23): 3.05 times
median signature score over baseline ([3]; C1D10, MLFS patients, IQR 1.23-1.31): 1.26 times
median signature score over baseline ([3]; C1D10, PD patients, IQR 1.08-1.21): 1.14 times
